Data as given in patent US10064844B2, “Pharmaceutical compositions comprising an aromatse inhibitors” (MEREO BIOPHARMA 2 LIMITED, priority 2011, dated 2018).

Columns and labels:
[1] = test system: other enzymes involved in steroid hormone synthesis or metabolism; experiment: Single ascending dose study in women: other steroid hormone enzymes and hormone levels; format: in vivo, human; settings: single doses
[2] = test system: estrone, estrone sulfate and estradiol; experiment: Single ascending dose study in women: pharmacodynamics (estrogen suppression); format: in vivo, human
Experimental: Patients received either 0.1 mg, 1 mg, and 10 mg drug substance containing hard gelatin capsules as described in Example 2 or appropriate matching placebo capsules.
(§1) A […] (MTD) was not reached. […] Table 4 presents the PK parameters based on preliminary analysis of the concentration-time profile obtained from this study.
(§2) There were no changes in bone density by DEXA after 6 months.

[3] = Pharmacokinetics after oral administration to rats; format: in vivo
[4] = test system: DMBA-induced mammary tumors; experiment: Inhibition of DMBA-induced mammary tumors in rats (aromatase dependent model); format: in vivo; settings: Rattus norvegicus
[5] = Solid state properties of the drug substance (hygroscopicity, water solubility); format: physicochemical; settings: crystalline powder
[6] = test system: androstenedione-induced uterine hypertrophy; experiment: Inhibition of androstenedione-induced uterine hypertrophy in rats (aromatase dependent model); format: in vivo; settings: Rattus norvegicus
[7] = Single ascending dose study in pre- and post-menopausal women: pharmacokinetics; format: in vivo, human
Description: as §1

[8] = Single ascending dose study in women: safety and tolerability; format: in vivo
Description: as §1, §2

With `N#Cc1ccc(C(F)(c2ccc(C#N)cc2)n2cncn2)cc1` [CGP47645, 4,4′-[fluoro-(1-H-1,2,4-triazol-1-yl)methylene]bisbenzonitrile] the “inhibition of other enzymes involved in steroid hormone synthesis or metabolism” value [1] was “No inhibition”, the “lowest single dose at which maximal estrogen suppression was observed” value ([2]; post-menopausal women, chemiluminescence or radioimmunoassay) was 0.1 mg and the “lowest single dose at which transient estrogen suppression was seen” value ([2]; postmenopausal women) was 0.01 mg. The “exposure expressed as AUC versus dose” value [3] was “proportional to the administered dose”, the ED50 [4] was 10 µg/kg and the solubility in water [5] was “poorly soluble in water”. For the same compound, the ED50 [6] was 3 µg/kg, the “difference in pharmacokinetics between post- and pre-menopausal women” value ([7]; 0.1 mg cohorts) was “No differences” and the Tmax ([7]; female, human, in vivo) was 0.5 to 2 h. For the same compound, the half-life ([7]; female, human, in vivo) was 552 to 648 h, the “median Tmax” value ([7]; female, human, in vivo) was at most 1 h and the “AUC(0-tlast), mean” value ([7]; female, human, in vivo, 0.1 mg) was 116.2 ng·h/mL. For the same compound, the “Cmax, mean” value ([7]; female, human, in vivo, 0.1 mg) was 1.7 ng/mL, the “T1/2, mean” value ([7]; female, human, in vivo, 1 mg) was 538 h and the “T1/2, mean” value ([7]; female, human, in vivo, 20 mg) was 646 h. For the same compound, the Tmax ([7]; female, human, in vivo, po, 0.03 mg) was 0.6 h, the “dose proportionality of pharmacokinetics (Cmax & AUC)” value ([7]; human, in vivo) was “dose proportional pharmacokinetics” and the “half life in humans compared with letrozole” value ([7]; human, in vivo) was “longer half life in humans than does letrozole”. For the same compound, the inter-subject variability ([7]; single doses, women) was 10-30%, the “changes in bone density by DEXA” value ([8]; in vivo) was “no changes” and the “minimal toxic dose (MTD)” value ([8]; single doses 0.01 mg through 20 mg, women) was “not reached”.
